One series has as its system ZEAMX. The experiment in a line: Post-emergence herbicidal effect and crop plant compatibility, greenhouse pot test. It counts as in vivo, Zea mays. As to conditions: one-leaf stage, rated visually after about 3 weeks vs untreated controls. The gist of the method: (§1)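 Greenhouse pot test: weeds and crops sown in sandy loam, sprayed post-emergence at one-leaf stage (2–3 weeks after sowing) with WP or EC formulations plus 0.5% additive at 600 l/ha water, rates 20–320 g/ha. Visual rating about 3 weeks later versus untreated controls (100% = dead, 0% = as control).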

The next series relates to ORYSA. Described as above. As to conditions: for Post-emergence effect against ORYSA: 20 g/ha, visual rating about 3 weeks after treatment, crop plant. Type of series: in vivo, Oryza sativa. The text has this:
• ALOMY: Alopecurus myosuroides SETVI: Setaria viridis • AVEFA: Avena fatua POLCO: Fallopia convolvulus • AMARE: Amaranthus retroflexus ECHCG: Echinochloa crus-galli • LOLRJ: Lolium rigidum STEME: Stellaria media • VERPE: Veronica persica MATIN: Tripleurospermum inodorum • DIGSA: Digitaria sanguinalis ABUTH: Abutylon threophrasti • TRZAS: Triticum aestivum VIOTR: Viola tricolor • BRSNW: Brassica napus ZEAMX: Zea mays • PHBPU: Ipomoea purpurea GLXMA: Glycine max • ORYSA: Oryza sativa HORMU: Hordeum murinum
Seeds of monocotyledonous and dicotyledonous weeds and crop plants are placed in sandy loam in plastic or organic planting pots, covered with soil and cultivated in a greenhouse under controlled growth conditions. 2 to 3 weeks after sowing, the trial plants are treated at the one-leaf stage. The compounds of the invention, formulated in the form of wettable powders (WP) or as emulsion concentrates (EC), are then sprayed onto the green parts of the plants as aqueous suspension or emulsion with addition of 0.5% additive at a water application rate of 600 l/ha (converted). After the test plants have been kept in the greenhouse under optimum growth conditions for about 3 weeks, the activity of the preparations is rated visually in comparison to untreated controls. For example, 100% activity=the plants have died, 0% activity=like control plants.
Tables 20a to 38c below show the effects/crop compatibilities of selected compounds of the general formula (I) on various harmful plants at an application rate corresponding to 20 to 320 g/ha, which were obtained by the trial procedure specified above.

The next series has as its system ABUTH. Briefly: Post-emergence herbicidal effect, greenhouse pot test. It counts as in vivo, Abutilon theophrasti. The note with it: visual rating about 3 weeks after treatment. The procedure, abridged:
(§2)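 Visual % activity scored roughly 3 weeks post-spray against untreated plants, where 100% means death and 0% equals control. Plants were treated at the one-leaf stage, 2 to 3 weeks after sowing in sandy loam, at 20 to 320 g/ha.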

The subject of another series is ALOMY. The series is described as above. It counts as in vivo, Alopecurus myosuroides. The note with it: visual rating about 3 weeks after treatment. The procedure, abridged:
as §2

Another series relates to AMARE. Described as above. It counts as in vivo, Amaranthus retroflexus. As to conditions: visual rating about 3 weeks after treatment. The gist of the method:
as §2

A further series concerns AVEFA. The description is as above. It counts as in vivo, Avena fatua. As to conditions: 320 g/ha, visual rating about 3 weeks after treatment. The gist of the method: as §2
The subject of the next series is DIGSA. The series is described as above. Type of series: in vivo, Digitaria sanguinalis. As to conditions: visual rating about 3 weeks after treatment. The procedure, abridged:
as §2

The subject of a further series is ECHCG. The series is described as above. It counts as in vivo, Echinochloa crus-galli. As to conditions: for Post-emergence effect against ECHCG: 20 g/ha, visual rating about 3 weeks after treatment. The gist of the method:
as §2

The next series relates to LOLRI. The series is described as above. Type of series: in vivo, Lolium rigidum. As to conditions: 320 g/ha. The gist of the method:
as §2

The subject of a further series is MATIN. The description is as above. Type of series: in vivo, Tripleurospermum inodorum. The gist of the method: as §2
Another series relates to PHBPU. The series is described as above. It counts as in vivo, Ipomoea purpurea. The procedure, abridged: as §2
The next series concerns POLCO. Described as above. It counts as in vivo, Fallopia convolvulus. The procedure, abridged:
as §2

The test system of the next series is SETVI. Described as above. It counts as in vivo, Setaria viridis. The procedure, abridged:
as §2

For the next series, the system named is VERPE. The series is described as above. Type of series: in vivo, Veronica persica. The procedure, abridged: as §2
The subject of the next series is VIOTR. The series is described as above. It counts as in vivo, Viola tricolor. The procedure, abridged: as §2
The next series concerns TRZAS. The experiment in a line: Post-emergence herbicidal effect and crop plant compatibility, greenhouse pot test. It counts as in vivo, Triticum aestivum. The note with it: 20 g/ha, one-leaf stage, rated visually after about 3 weeks vs untreated controls. The procedure, abridged: as §1

Regarding `COC(=O)C(C)COC(=O)C(OC)Oc1nn(-c2ccccc2F)c(-c2ccc(F)nc2)c1Br` (racemic) [Example I-10], the “Post-emergence effect at 20 g/ha against ZEAMX in %” value with ZEAMX is on record as 20%. For the same compound, the “Post-emergence effect against ORYSA” value with ORYSA stood at 10%. The “Post-emergence effect against ABUTH” value is recorded as 80% in the series on ABUTH (20 g/ha), 90% in the series with ABUTH (80 g/ha) and 90% in the series on ABUTH (320 g/ha). Besides, the “Post-emergence effect against ALOMY” value in the series on ALOMY (320 g/ha) was determined as 90%. In addition, the “Post-emergence effect against AMARE” value in the series on AMARE (20 g/ha) is 80%; in the series on AMARE (80 g/ha), 80%; in the series on AMARE (320 g/ha), 100%. Besides, the “Post-emergence effect against AVEFA” value in the series with AVEFA came to 80%. Also, the “Post-emergence effect against DIGSA” value with DIGSA (320 g/ha) turned out to be 90%. The “Post-emergence effect against ECHCG” value in the series with ECHCG came out at 80%. Also, the entries for the “Post-emergence effect against ECHCG in %” value in the series on ECHCG (80 g/ha) and with ECHCG (320 g/ha) were 90% and 100%, respectively. For the same compound, the “Post-emergence effect against LOLRI in %” value in the series on LOLRI turned out to be 90%. In addition, the figures for the “Post-emergence effect against MATIN in %” value in the series with MATIN (20 g/ha), in the series with MATIN (80 g/ha) and in the series with MATIN (320 g/ha) were 80%, 80% and 90%, respectively. For the same compound, the “Post-emergence effect against PHBPU in %” value was determined as 80% in the series with PHBPU (80 g/ha) and 90% in the series with PHBPU (320 g/ha). Besides, the “Post-emergence effect against POLCO in %” value in the series with POLCO (20 g/ha), in the series on POLCO (80 g/ha) and in the series on POLCO (320 g/ha) was 80% throughout. The “Post-emergence effect against SETVI in %” value is recorded as 80% in the series with SETVI (80 g/ha) and 90% with SETVI (320 g/ha). Moreover, the “Post-emergence effect against VERPE in %” value in the series with VERPE (80 g/ha) and in the series on VERPE (320 g/ha) was 90% in each case. In addition, the “Post-emergence effect against VIOTR in %” value came to 80% with VIOTR (80 g/ha) and 90% in the series on VIOTR (320 g/ha).
`COC(=O)CCOC(=O)C(OC)Oc1nn(-c2ccccc2F)c(-c2ccc(F)nc2)c1Br` (single isomer, unassigned) [Example I-13]: the “Post-emergence effect at 20 g/ha against ZEAMX in %” value in the series on ZEAMX stood at 10%. The “Post-emergence effect at 80 g/ha against ZEAMX in %” value with ZEAMX (80 g/ha) is listed as 20%. In the series on ORYSA, the “Post-emergence effect against ORYSA” value is listed as 10%. In the series with ABUTH (320 g/ha), the “Post-emergence effect against ABUTH” value stood at 80%. For the same compound, the “Post-emergence effect against ALOMY” value with ALOMY (80 g/ha) is listed as 80%; in the series on ALOMY (320 g/ha), 90%. Besides, the “Post-emergence effect against AMARE” value in the series on AMARE (320 g/ha) is listed as 80%. For the same compound, in the series on AVEFA, the “Post-emergence effect against AVEFA” value is recorded as 80%. For the same compound, the “Post-emergence effect against DIGSA” value with DIGSA (80 g/ha) and in the series on DIGSA (320 g/ha) was 90% throughout. Besides, the “Post-emergence effect against ECHCG” value in the series with ECHCG is on record as 80%. In addition, the “Post-emergence effect against ECHCG in %” value with ECHCG (80 g/ha) and with ECHCG (320 g/ha) was 90% each time. Moreover, the “Post-emergence effect against LOLRI in %” value with LOLRI is 80%. Also, the “Post-emergence effect against MATIN in %” value in the series on MATIN (80 g/ha) and with MATIN (320 g/ha) was 80% each time. Further, in the series with PHBPU (320 g/ha), the “Post-emergence effect against PHBPU in %” value is listed as 90%. Moreover, the “Post-emergence effect against POLCO in %” value in the series with POLCO (80 g/ha) and in the series on POLCO (320 g/ha) was 80% throughout. The entries for the “Post-emergence effect against SETVI in %” value with SETVI (80 g/ha) and with SETVI (320 g/ha) were 80% and 90%, respectively. In addition, the “Post-emergence effect against VERPE in %” value in the series with VERPE (80 g/ha) and in the series on VERPE (320 g/ha) was 80% each time. Moreover, the “Post-emergence effect against VIOTR in %” value in the series on VIOTR (320 g/ha) was 80%.
For the compound `COC(Oc1nn(-c2ccccc2F)c(-c2ccc(F)nc2)c1Br)C(=O)O` (stereo not drawn) [Example I-12], the “Post-emergence effect at 20 g/ha against ZEAMX in %” value in the series on ZEAMX is on record as 0%. For the same compound, the plant injury at 80 g/ha with ZEAMX (Zea mays, 504 h, 80 g/ha, read-out: Post-emergence effect at 80 g/ha against ZEAMX in %) is 20%. Moreover, in the series on TRZAS, the “Post-emergence effect at 20 g/ha against TRZAS in %” value came out at 0%. In addition, in the series on ORYSA (320 g/ha, one-leaf stage, rated visually after about 3 weeks vs untreated controls), the “Post-emergence effect at 320 g/ha against ORYSA in %” value is 20%.

Source of the values: US20240391862A1, “(1,4,5-TRISUBSTITUTED-1H-PYRAZOL-3-YL)OXY-2-ALKOXY ALKYL ACIDS AND THEIR DERIVATIVES, THEIR SALTS AND THEIR USE AS HERBICIDAL AGENTS” (Bayer AKtiengesellschaft, priority 2021, published 2024).
